The values that follow come from ChEMBL document CHEMBL1201862, “PubChem BioAssay data set” (2004).

Among the test systems are UO-31; RXF 393; HCT-15; SW-620; COLO 205; PC-3; HOP-62; HT-29; M14; NCI-H23; RPMI-8226; OVCAR-4; UACC-257; DU-145; CAKI-1; IGROV-1; 786-0; SR; NCI-H522; HL-60.
What all share (assay): NCI tumour cell line growth inhibition, 48 h

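Dose response: 5 concentrations. Exposure: 48 h. Format: 96-well plates. Endpoint: linear interpolation; highest concentration if not reached. Abbreviation: GI50, concentration required for 50% inhibition of growth.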 The source made the active and inactive calls. No stated cut-off is given here; in the data, active = GI50 up to about 1.1 µM and inactive = higher. Where only a bound is given, the exact number is not on record here.

Turning to `Cc1ccc(/N=N/c2c(O)ccc3ccccc23)c(C)c1`, the GI50 in the experiment on UO-31 is > 100 µM (inactive); in the experiment on RXF 393, > 100 µM (inactive); in the experiment on HCT-15, greater than 100 µM; with SW-620, > 100 µM (inactive); with COLO 205, > 100 µM (inactive); with PC-3, > 100 µM (inactive). Further, the GI50 with HOP-62, with HT-29, with M14, in the experiment with NCI-H23, in the experiment with RPMI-8226 and in the experiment with OVCAR-4 was > 100 µM (inactive) in each case. Also, the GI50 with UACC-257, in the experiment on DU-145, in the experiment on CAKI-1, in the experiment on IGROV-1 and in the experiment on 786-0 was > 100 µM (inactive) each time.

In the case of `COc1cc2c3c(n(C)c(=O)c2cc1OC)-c1cc2c(cc1/C3=C\CCCCCBr)OCO2`, the GI50 was 4.66 µM (inactive) in the experiment with UO-31; 21.3 µM in the experiment on HCT-15; 8.32 µM (inactive) with SW-620; 47.3 µM (inactive) in the experiment with COLO 205; 0.43 µM (active) in the experiment on SR; 28.8 µM (inactive) in the experiment on PC-3. Moreover, the GI50 in the experiment on HT-29 is 11.2 µM (inactive); in the experiment on NCI-H23, 10.6 µM (inactive); with RPMI-8226 it was 5.41 µM (inactive); in the experiment with OVCAR-4, 26.9 µM (inactive); with UACC-257 it was 25.1 µM (inactive); with NCI-H522, 3.73 µM (inactive). Moreover, the GI50 in the experiment with CAKI-1 is 3.81 µM (inactive); in the experiment with HL-60 it was 4.02 µM (inactive); in the experiment with IGROV-1 it was 0.0546 µM (active); with 786-0, 5.77 µM (inactive).

For the molecule `CCCc1c(Cl)nc(Cl)nc1Cl`, the GI50 with UO-31 is 25.4 µM (inactive); in the experiment with RXF 393, 1.09 µM (active); with HCT-15 it was 0.327 µM; with SW-620 it was 0.16 µM (active); with COLO 205, 0.252 µM (active); in the experiment with PC-3, 2.75 µM (inactive). The GI50 in the experiment on HOP-62 is 2.43 µM (inactive); in the experiment with HT-29, 0.175 µM (active); with M14, 0.192 µM (active); with NCI-H23 it was 0.428 µM (active); in the experiment on RPMI-8226, 0.432 µM (active); with OVCAR-4, 10.2 µM (inactive). In addition, the GI50 was 2.13 µM (inactive) in the experiment with UACC-257; 5.47 µM (inactive) with DU-145; 0.48 µM (active) with HL-60; 0.787 µM (active) in the experiment with IGROV-1; 0.247 µM (active) with 786-0.

For the molecule `Cc1cc(Cl)ccc1NC(=O)C(=O)Cc1ccc([N+](=O)[O-])c([N+](=O)[O-])c1CC(=O)C(=O)Nc1ccc(Cl)cc1C`, the GI50 with UO-31 is > 100 µM (inactive); with RXF 393 it was > 100 µM (inactive); in the experiment with HCT-15 it was greater than 100 µM; with SW-620, > 100 µM (inactive); in the experiment with COLO 205, 61.1 µM (inactive); with SR it was 42.1 µM (inactive). The GI50 with HOP-62, with HT-29, in the experiment on M14, in the experiment with NCI-H23, in the experiment with RPMI-8226 and with OVCAR-4 was > 100 µM (inactive) each time. Further, the GI50 in the experiment on UACC-257 was > 100 µM (inactive); in the experiment with NCI-H522, 99.1 µM (inactive); in the experiment with CAKI-1 it was > 100 µM (inactive); in the experiment with HL-60 it was > 100 µM (inactive); in the experiment with IGROV-1, > 100 µM (inactive); with 786-0, > 100 µM (inactive).

Consider `OCCN(C1=NCCN1)/[N+](=C/c1ccc(Cl)cc1)[CH-]c1ccc(Cl)cc1`, for which the GI50 in the experiment with UO-31 was > 100 µM (inactive); in the experiment with RXF 393, 15.5 µM (inactive); with HCT-15, 61.8 µM; with SW-620 it was > 100 µM (inactive); with COLO 205, 62.4 µM (inactive); in the experiment on SR it was 99.1 µM (inactive). Moreover, the GI50 with PC-3 was 62.5 µM (inactive); with HOP-62, > 100 µM (inactive); in the experiment with HT-29 it was 94.8 µM (inactive); in the experiment with M14 it was 83.9 µM (inactive); in the experiment with NCI-H23, > 100 µM (inactive); in the experiment with OVCAR-4, > 100 µM (inactive). The GI50 is > 100 µM (inactive) in the experiment with UACC-257; 84.3 µM (inactive) in the experiment with NCI-H522; > 100 µM (inactive) with CAKI-1; > 100 µM (inactive) in the experiment on IGROV-1; > 100 µM (inactive) with 786-0.

For the molecule `Cc1[nH]c2ccccc2c1C1=CC(=O)N(c2ccccc2)C1=O`, the GI50 is 19 µM (inactive) with UO-31; 6.67 µM (inactive) in the experiment with RXF 393; 7.76 µM in the experiment on HCT-15; 5.38 µM (inactive) in the experiment with SW-620; 17.7 µM (inactive) in the experiment on COLO 205; 11.9 µM (inactive) in the experiment with PC-3. Besides, the GI50 in the experiment with HOP-62 was 7.98 µM (inactive); in the experiment on HT-29, 5.58 µM (inactive); in the experiment on M14 it was 13.6 µM (inactive); in the experiment on NCI-H23, 12.1 µM (inactive); in the experiment on RPMI-8226, 11.3 µM (inactive); in the experiment with UACC-257, 13.1 µM (inactive). The GI50 in the experiment on DU-145 is 4.74 µM (inactive); in the experiment with CAKI-1, 6.22 µM (inactive); in the experiment on HL-60, 10.7 µM (inactive); with IGROV-1, 32.1 µM (inactive); with 786-0, 10.8 µM (inactive).

With `N#Cc1c2c(c(N3CCOCC3)n3c1nc1ccccc13)CCCC2`, the GI50 was 18.4 µM (inactive) in the experiment with UO-31; 17.8 µM in the experiment with HCT-15; 14.4 µM (inactive) with SW-620; 20.9 µM (inactive) in the experiment with COLO 205; 21.9 µM (inactive) with PC-3; 16.4 µM (inactive) in the experiment on HT-29. Besides, the GI50 is 21.5 µM (inactive) in the experiment with M14; 19.5 µM (inactive) in the experiment with NCI-H23; 20 µM (inactive) with OVCAR-4; 29.2 µM (inactive) in the experiment on UACC-257; 19 µM (inactive) in the experiment with DU-145; 16.3 µM (inactive) in the experiment on NCI-H522. The GI50 in the experiment with CAKI-1 was 19.1 µM (inactive); in the experiment on HL-60 it was 13.8 µM (inactive); with IGROV-1, 16.6 µM (inactive); in the experiment on 786-0, 16.3 µM (inactive).

For the molecule `Brc1ccc(-c2nc(-c3ccc(Br)cc3)n(-c3ccccc3)n2)cc1`, the GI50 with UO-31 is > 100 µM (inactive); with HCT-15 it was greater than 100 µM; in the experiment on SW-620 it was > 100 µM (inactive); in the experiment on COLO 205, 27.2 µM (inactive); in the experiment with PC-3, > 100 µM (inactive); in the experiment on HOP-62 it was > 100 µM (inactive). Further, the GI50 is 26.9 µM (inactive) in the experiment on HT-29; > 100 µM (inactive) in the experiment with M14; > 100 µM (inactive) in the experiment with NCI-H23; > 100 µM (inactive) in the experiment on OVCAR-4; 81.1 µM (inactive) in the experiment with UACC-257; > 100 µM (inactive) in the experiment on DU-145. The GI50 is 39 µM (inactive) with NCI-H522; > 100 µM (inactive) in the experiment on CAKI-1; 34.8 µM (inactive) in the experiment with HL-60; > 100 µM (inactive) with IGROV-1; > 100 µM (inactive) in the experiment with 786-0.

In the case of `COc1c(OC)c(OC)c(C(=O)/C=C/c2ccccc2)c(OC)c1OC`, the GI50 with UO-31 is 10.5 µM (inactive); in the experiment on HCT-15, 10.6 µM; in the experiment on SW-620 it was 6.95 µM (inactive); in the experiment with COLO 205, 14.2 µM (inactive); in the experiment on PC-3, 8.67 µM (inactive); in the experiment with HT-29, 4.47 µM (inactive). For the same molecule, the GI50 in the experiment on M14 is 12 µM (inactive); in the experiment on NCI-H23 it was 11 µM (inactive); with RPMI-8226, 3.6 µM (inactive); with OVCAR-4 it was 5.97 µM (inactive); in the experiment on UACC-257 it was 14.3 µM (inactive); in the experiment on DU-145, 3.54 µM (inactive). For the same molecule, the GI50 with NCI-H522 is 3.12 µM (inactive); in the experiment on CAKI-1 it was 13.9 µM (inactive); in the experiment with HL-60, 7.11 µM (inactive); with IGROV-1 it was 11.3 µM (inactive); with 786-0 it was 9.29 µM (inactive).

On to `CCN(CC)CC(=O)Nc1ccc2c(c1)C(=O)c1ccc(NC(=O)CN(CC)CC)cc1C2=O`, for which the GI50 in the experiment with UO-31 is > 100 µM (inactive); in the experiment on RXF 393 it was 3.22 µM (inactive); in the experiment with HCT-15, 36.4 µM; with SW-620 it was 24.9 µM (inactive); in the experiment with COLO 205, 15.2 µM (inactive); in the experiment on SR it was 18.1 µM (inactive). The GI50 is 20.3 µM (inactive) with HOP-62; 30.5 µM (inactive) with HT-29; 19.7 µM (inactive) with M14; 77.6 µM (inactive) in the experiment on NCI-H23; 31.3 µM (inactive) in the experiment with RPMI-8226; 39.1 µM (inactive) in the experiment with OVCAR-4. Also, the GI50 in the experiment with UACC-257 was 31.8 µM (inactive); in the experiment with NCI-H522 it was 21.1 µM (inactive); in the experiment with CAKI-1, 70.1 µM (inactive); in the experiment on HL-60, 18.8 µM (inactive); with IGROV-1 it was 17.7 µM (inactive); in the experiment with 786-0, 18.9 µM (inactive).

Turning to `Cc1ccc(NC(=O)c2cc3ccccc3c(/N=N\c3ccccc3O)c2O)c(C)c1`, the GI50 in the experiment on RXF 393 was 3.67 µM (inactive); in the experiment with HCT-15 it was 0.614 µM; in the experiment on SW-620, 1.69 µM (inactive); in the experiment with COLO 205 it was 3.02 µM (inactive); in the experiment with SR it was 0.373 µM (active); in the experiment on PC-3, 1.63 µM (inactive). Further, the GI50 is 1.03 µM (active) with HOP-62; 3.13 µM (inactive) with HT-29; 0.839 µM (active) with M14; 1.78 µM (inactive) in the experiment with RPMI-8226; 1.63 µM (inactive) in the experiment with OVCAR-4; 4.75 µM (inactive) with UACC-257. The GI50 is 1.01 µM (active) in the experiment on NCI-H522; 1.19 µM (inactive) with CAKI-1; 1.14 µM (inactive) in the experiment with HL-60; 1.14 µM (inactive) in the experiment on IGROV-1; 1.32 µM (inactive) with 786-0.

`COc1ccc(OC)c(C#Cc2ccc(OC)c(C(=O)NCCc3ccc(F)cc3)c2)c1`: the GI50 is 28.3 µM (inactive) in the experiment with UO-31; 4.45 µM in the experiment on HCT-15; 4.02 µM (inactive) with SW-620; 5.22 µM (inactive) in the experiment with COLO 205; 0.783 µM (active) with SR; 5.14 µM (inactive) in the experiment on PC-3. The GI50 in the experiment on HT-29 was 3.17 µM (inactive); in the experiment with M14, 5.53 µM (inactive); in the experiment with NCI-H23 it was > 100 µM (inactive); with RPMI-8226, 3.32 µM (inactive); in the experiment on OVCAR-4 it was 6.32 µM (inactive); in the experiment with UACC-257 it was > 100 µM (inactive). Moreover, the GI50 in the experiment with NCI-H522 is 2.25 µM (inactive); with CAKI-1, > 100 µM (inactive); with HL-60 it was 5.13 µM (inactive); with IGROV-1, 3.53 µM (inactive); with 786-0, > 100 µM (inactive).
